According to patent US10603320B2, “Compounds useful for inhibiting ROR-gamma-t” (Eli Lilly and Company, priority 2017, dated 2020):

How the values were obtained:
PBMC = test: cells; format: cell-based; conditions: Homo sapiens, 48 h, read-out: Cell TiterGlo Viability (EC50)
Description: PBMC's are isolated from whole blood buffy coats by first combining fresh buffy coats with equal volumes of phosphate buffered saline. Thirty five mL of PBS/buffy coat solution are then gently overlaid onto 15 mL of Ficoll in 50 mL conical tubes. Following centrifugation for 30 minutes at 500×g (with slow acceleration and deceleration) the top layer of plasma is discarded and the layer of cells along the Ficoll interface is collected and pooled. Each 250 mL tube is filled to the top with room temperature RPMI-1640 media. Tubes are spun for 10 minutes at 500×G (with slow acceleration and deceleration), the media is removed by aspiration, and the wash step is repeated. Cells are resuspended in ice cold Recovery Cell Culture Freezing Medium from Life Technologies (Catalog number 12648-010) on ice. […].
PBMC are brought out of thaw by resuspending with 1 mL of complete media (RPMI-1640 containing 30 mM HEPES, 100 units/mL penicillin, 100 μg/mL streptomycin, 3.25 mM L-Glutamine, 0.2 μM beta-mercaptoethanol, and 10% FBS) followed by the drop wise addition of 2 mL, 4 mL, 8 mL, and 16 mL of complete media with gentle swirling. Cells are spun down for 5 minutes and the cell pellet is resuspended in complete media. Clumps of cells are broken up by running the cell solution through a 23 gauge syringe needle and a 40 μM cell strainer. […].
Equal volumes of Cell TITERGLO® cell viability testing reagent (Promega Cat #G7573) are added to the cells remaining in the plates, and following a fifteen minute incubation with gentle shaking at room temperature luminescence is measured with the Envision multi-label plate reader. Percent cell death is calculated by setting 100% activity (cell death) to zero luminescence units and minimum activity (max number of viable cells) as the average luminescence units of wells containing stimulants alone and no added compound. IC50's are calculated using a standard four parameter fit.

[1] = target: human RAR-related orphan receptor gamma (hRORg) (Homo sapiens (Human), UniProt P51449); test: RORg receptor-ligand competition binding assay; conditions: His-tagged hRORg, [3H]-25-hydroxycholesterol; mean ± standard deviation
Sequence of human RAR-related orphan receptor gamma (hRORg) (P51449 whole entry, the tested form may be a part): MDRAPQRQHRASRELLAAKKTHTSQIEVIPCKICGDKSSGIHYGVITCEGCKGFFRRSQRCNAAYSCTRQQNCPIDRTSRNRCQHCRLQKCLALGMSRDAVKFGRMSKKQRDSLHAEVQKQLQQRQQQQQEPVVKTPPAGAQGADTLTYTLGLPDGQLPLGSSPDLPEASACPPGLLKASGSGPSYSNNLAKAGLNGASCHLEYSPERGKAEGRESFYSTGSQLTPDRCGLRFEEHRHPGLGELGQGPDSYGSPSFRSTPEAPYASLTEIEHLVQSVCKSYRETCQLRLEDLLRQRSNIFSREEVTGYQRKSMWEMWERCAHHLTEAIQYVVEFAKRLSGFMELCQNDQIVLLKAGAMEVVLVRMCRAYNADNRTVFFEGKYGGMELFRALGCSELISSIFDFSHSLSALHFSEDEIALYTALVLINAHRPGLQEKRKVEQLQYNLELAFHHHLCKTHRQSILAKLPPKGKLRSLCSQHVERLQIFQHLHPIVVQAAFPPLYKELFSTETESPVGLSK

[2] = target: human RORg ligand binding domain fused to yeast GAL4 DNA binding domain (Homo sapiens (Human), UniProt P51449); test: HEK293 RORg GAL4 Receptor-Reporter Assay; format: cell-based; conditions: HEK293 cells, RORg-GAL4/pGL4.31 luciferase reporter, 18 hours; mean ± standard deviation; read-out: hIC50
Sequence of human RORg ligand binding domain fused to yeast GAL4 DNA binding domain (P51449 269-508): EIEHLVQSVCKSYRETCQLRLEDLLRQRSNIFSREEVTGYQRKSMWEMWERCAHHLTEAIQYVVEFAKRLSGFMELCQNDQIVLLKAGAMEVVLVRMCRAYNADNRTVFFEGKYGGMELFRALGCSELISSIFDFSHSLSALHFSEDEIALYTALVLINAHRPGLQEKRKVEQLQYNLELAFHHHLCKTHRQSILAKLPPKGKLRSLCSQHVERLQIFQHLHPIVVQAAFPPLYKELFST
Description: As an indicator of inverse agonist activity, an RAR-related orphan receptor gamma (RORg) receptor-reporter assay (RORg-GAL4/pGL4.31) is performed in HEK293 cells. HEK293 cells are co-transfected using Fugene™ reagent. A reporter plasmid containing a GAL4 binding domain and a minimal adenoviral promoter upstream of a firefly luciferase gene is co-transfected with a plasmid constitutively expressing a human RORg ligand binding domain fused to yeast GAL4 DNA binding domain. Cells are transfected in T150 cm^2 flasks in MEM media without FBS. After 18 hours incubation, transfected cells are trypsinized, plated in 96-well microtiter plates in 3:1 DMEM-F12 media containing 10% FBS, incubated for 4 hours and then exposed to various concentrations of test compounds ranging from about 0.05 nM to 10 μM. After 18 hours of incubations with compounds, cells are lysed and luciferase activity is quantified using standard techniques. Data is fit to a 4 parameter-fit logistics to determine IC50 values.

IL-17 secretion in PBMC = test: PBMC IL-17 Secretion ELISA; format: cell-based; conditions: Homo sapiens; anti-CD3/anti-CD28/IL-23 stimulated PBMC, 48 hours; mean ± standard deviation; read-out: hPBMC IL-17 ELISA (EC50)
Description: PBMC's are isolated from whole blood buffy coats by first combining fresh buffy coats with equal volumes of phosphate buffered saline. Thirty five mL of PBS/buffy coat solution are then gently overlaid onto 15 mL of Ficoll in 50 mL conical tubes. Following centrifugation for 30 minutes at 500×g (with slow acceleration and deceleration) the top layer of plasma is discarded and the layer of cells along the Ficoll interface is collected and pooled. Each 250 mL tube is filled to the top with room temperature RPMI-1640 media. Tubes are spun for 10 minutes at 500×G (with slow acceleration and deceleration), the media is removed by aspiration, and the wash step is repeated. Cells are resuspended in ice cold Recovery Cell Culture Freezing Medium from Life Technologies (Catalog number 12648-010) on ice. The cell concentration is adjusted to 66.7 million cells/mL. Cell are slow frozen at −1° C./minute in vials with 100 million cells and stored in liquid nitrogen.
PBMC are brought out of thaw by resuspending with 1 mL of complete media (RPMI-1640 containing 30 mM HEPES, 100 units/mL penicillin, 100 μg/mL streptomycin, 3.25 mM L-Glutamine, 0.2 μM beta-mercaptoethanol, and 10% FBS) followed by the drop wise addition of 2 mL, 4 mL, 8 mL, and 16 mL of complete media with gentle swirling. Cells are spun down for 5 minutes and the cell pellet is resuspended in complete media. Clumps of cells are broken up by running the cell solution through a 23 gauge syringe needle and a […] cell strainer. One hundred thousand cells per well are added to 384 well polystyrene tissue culture treated flat bottomed plates in a total of 30 μL. […]
Following the incubation period the plates are spun at 200×g for five minutes. […] Absorbance at 492 nm is measured with the Envision multi-label plate reader. […] IC50's for inhibition of IL-17 secretion is calculated based on converted values using a standard 4-parameter fit with maximum inhibition determined from the average values of wells with no added stimulants nor compounds and minimum inhibition from the average values of wells with stimulants alone and no added compound.

[3] = target: human RAR-related orphan receptor alpha (hRORa) (Homo sapiens (Human), UniProt P35398); test: RORa receptor-ligand competition binding assay; conditions: His-tagged hRORa, [3H]-25-hydroxycholesterol; mean ± standard deviation
Sequence of human RAR-related orphan receptor alpha (hRORa) (P35398 whole entry): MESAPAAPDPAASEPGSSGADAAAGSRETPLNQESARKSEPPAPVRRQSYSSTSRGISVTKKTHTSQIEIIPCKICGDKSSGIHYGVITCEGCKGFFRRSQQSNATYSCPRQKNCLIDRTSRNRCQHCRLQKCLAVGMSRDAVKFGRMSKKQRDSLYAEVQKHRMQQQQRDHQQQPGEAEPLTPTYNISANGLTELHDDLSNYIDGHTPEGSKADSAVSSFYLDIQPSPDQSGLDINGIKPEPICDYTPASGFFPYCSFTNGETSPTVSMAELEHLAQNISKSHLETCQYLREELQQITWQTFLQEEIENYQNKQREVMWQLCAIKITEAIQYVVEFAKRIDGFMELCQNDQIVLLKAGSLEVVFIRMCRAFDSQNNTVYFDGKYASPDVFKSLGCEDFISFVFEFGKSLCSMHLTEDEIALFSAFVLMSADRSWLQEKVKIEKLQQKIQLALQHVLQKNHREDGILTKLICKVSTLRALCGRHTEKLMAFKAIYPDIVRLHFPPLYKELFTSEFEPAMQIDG

[4] = target: human RAR-related orphan receptor beta (hRORb) (Homo sapiens (Human), UniProt Q92753); test: RORb receptor-ligand competition binding assay; conditions: His-tagged hRORb, [3H]-labelled isoxazole benzoic acid ligand
Sequence of human RAR-related orphan receptor beta (hRORb) (Q92753 whole entry): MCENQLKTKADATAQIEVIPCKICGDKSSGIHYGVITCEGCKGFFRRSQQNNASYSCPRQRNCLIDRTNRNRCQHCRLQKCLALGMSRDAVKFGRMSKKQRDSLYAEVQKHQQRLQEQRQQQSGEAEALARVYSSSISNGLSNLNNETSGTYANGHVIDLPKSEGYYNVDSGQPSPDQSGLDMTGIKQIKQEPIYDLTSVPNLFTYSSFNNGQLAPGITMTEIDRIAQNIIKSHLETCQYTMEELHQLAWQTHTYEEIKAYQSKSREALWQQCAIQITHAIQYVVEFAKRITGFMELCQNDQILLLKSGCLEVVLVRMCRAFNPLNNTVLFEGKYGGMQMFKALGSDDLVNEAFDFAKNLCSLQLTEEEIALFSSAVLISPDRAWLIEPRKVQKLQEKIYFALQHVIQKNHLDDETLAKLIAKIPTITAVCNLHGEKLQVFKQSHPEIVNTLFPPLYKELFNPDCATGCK

| Compound | EC50 (PBMC) [nM] | Ki [1] [nM] | IC50 [2] [nM] | EC50 (IL-17 secretion in PBMC) [nM] | Ki [3] [nM] | Ki [4] [nM] |
| --- | --- | --- | --- | --- | --- | --- |
| CCS(=O)(=O)c1ccc(CNC(=O)c2cc3c(s2)C2(CCN(C(C)c4ccc(C#N)cc4)CC2)OC2(CC2)C3)cc1 (single isomer, unassigned; isomer 1) [Example 8, 1′-[1-(4-Cyanophenyl)ethyl]-5,5-spirocyclopropane-N-[(4-ethylsulfonylphenyl)methyl]spiro[4H-thieno[2,3-c]pyran-7,4′-piperidine]-2-carboxamide isomer 1] | > 1000 | 6 ± 1.81 | 34.4 ± 6.01 | 10.9 ± 6.44 | > 20400 | > 12500 |
| CCS(=O)(=O)c1ccc(CNC(=O)c2cc3c(s2)C2(CCN([C@H](C)c4cnc(C(F)(F)F)nc4)CC2)OC2(CC2)C3)nc1 [Example 7, N-{[5-(Ethylsulfonyl)pyridin-2-yl]methyl}-1″-(1R)-1-[2-(trifluoromethyl)pyrimidin-5-yl]ethyl-4′H-dispiro[cyclopropane-1,5′-thieno[2,3-c]pyran-7′,4″-piperidine]-2′-carboxamide] | > 1000 | 6.4 ± 2.62 | 22.3 ± 23.8 | 14.6 ± 8.24 |  | > 12500 |
| CCS(=O)(=O)c1ccc(CNC(=O)c2cc3c(s2)C2(CCN([C@H](C)c4cnc(C(F)(F)F)nc4)CC2)OC(C)(C)C3)nc1 [Example 5, N-{[5-(Ethylsulfonyl)pyridin-2-yl]methyl}-5′,5′-dimethyl-1-{(1R)-1-[2-(trifluoromethyl)pyrimidin-5-yl]ethyl}-4′,5′-dihydrospiro[piperidine-4,7′-thieno[2,3-c]pyran]-2′-carboxamide] | > 1000 | 6.96 ± 3.89 | 16.7 ± 20.3 | 11 ± 7.67 |  | > 12500 |
